Assay results from PMC7496730, “Peptide-PAINT Super-Resolution Imaging Using Transient Coiled Coil Interactions” (Nano Letters, 2020).
Residues, ends and D or L forms follow the SMILES beside them.

Molecular target: E3 peptide (21 amino acid)
Test: E/K coiled coil stability (length dependence, Figure S1), E3/K3 complex
Assay type: binding
Conditions: 21 aa long E3 and K3 peptides
Experimental: The PAINT process requires a dynamic equilibrium between bound and unbound states of the fluorescently labeled imager probe. In DNA-PAINT, this is achieved when the transiently formed duplexes have stabilities in the micromolar range (KD ≈ 1 μM). The interaction between the 21 amino acid (aa) long E3 and K3 peptides previously used for protein imaging[20]−[23] leads to a coiled coil complex with nanomolar stability (KD ≈ 20 nM, Figure S1). Aiming for the identification of a suitable weaker affinity, we investigated the length dependence of coiled coil stability (Figure S1).

Kd: ~20 nM
Structure (SMILES): CC[C@H](C)[C@H](NC(=O)[C@H](CCCCN)NC(C)=O)C(=O)N[C@@H](C)C(=O)N[C@@H](C)C(=O)N[C@@H](CC(C)C)C(=O)N[C@@H](CCCCN)C(=O)N[C@@H](CCC(=O)O)C(=O)N[C@@H](CCCCN)C(=O)N[C@H](C(=O)N[C@@H](C)C(=O)N[C@@H](C)C(=O)N[C@@H](CC(C)C)C(=O)N[C@@H](CCCCN)C(=O)N[C@@H](CCC(=O)O)C(=O)N[C@@H](CCCCN)C(=O)N[C@H](C(=O)N[C@@H](C)C(=O)N[C@@H](C)C(=O)N[C@@H](CC(C)C)C(=O)N[C@@H](CCCCN)C(=O)N[C@@H](CCC(=O)O)C(N)=O)[C@@H](C)CC)[C@@H](C)CC [K3] (Ac-KIAALKEKIAALKEKIAALKE-NH2)
